In US11141432B2, “Materials and methods for increasing immune responses” (Mayo Foundation for Medical Education and Research, priority 2016, dated 2021):
Where a SMILES comes first, the peptide text is derived from it. The star is where a group is joined. Cbz = O=C(OCc1ccccc1)*; CH2F = FC*

Experiments:
CD8+ T cells [1] = experiment: Phenotyping of effector differentiation markers and transcription factors in CD8+ T cells; format: cell-based, mice; conditions: CD8+ T cells treated with Genipin
Description: (§1) Naïve or resting CD8+ T cells obtained from OT-1 PL Rag−/− TCR transgenic mice were stimulated in vitro with its cognate antigen in the presence of B7.1 co-stimulatory molecule, and cytokine IL-12 for 48h. The antigen constitutes sulfate latex microspheres (Life Technologies Cat. No. S37227) bearing DimerX Ig-recombinant dimeric mouse H-2Kb: Ig fusion protein (BD Biosciences, Cat. No. 550750) with recombinant mouse B7-1/CD80 Fc chimeric protein (R&D Systems, Cat. No. 740-B). Short synthetic peptide SIINFEKL (SEQ ID NO:1) at 10 nM concentration (sequence derived from a chicken ovalbumin protein), presented by H-2Kb DimerX serves as the cognate antigen for TCR of CD8+ T cells from OT-1 PL Rag−/−TCR transgenic mice. CD8+ T cells isolated from lymph nodes and/or spleen were stimulated with antigen in the following culture medium: Glutamine-free RPMI (Corning CellGro, Cat. No. 15-040-CV) supplemented with FBS 10%, HEPES 10 mM, NEAA 1 mM, sodium pyruvate 1 mM, glutamine 2 mM, 2-mercaptoethanol 50 μM, and Pen/Strep. T cells were cultured in flat-bottom 96-well plates at 2×105/0.2 ml/well with microspheres at the ratio of 5:1. Genipin was added at 50 μM concentration (based on dose titration that produces minimal cell death) and preincubated with cells for 45 mins before subjecting the CD8+ T cells to antigen stimulation. The CD8+ T cells are cultured and harvested at 4 hours to 48 hours for evaluation by molecular, physiologic and phenotypic characteristics by standard methodologies like flow cytometry based phenotyping, lysis for protein or mRNA derivation using western blot, PCR and metabolic flux analysis. Signal one was provided by MHC Class I (H-2Kb) dimers bearing 1-10 nM of OT-1 cognate peptide (SIINFEKL; SEQ ID NO:1) (Ag). Signal two was provided by 1 μg/ml of recombinant murine B7.1 (co-stimulation) immobilized on inert latex microspheres (serves as artificial antigen presenting cells) in the presence of the third signal; 2 ng/ml of rmIL-12 (cytokine). For antigen stimulation, the naïve T cells and latex microspheres were reacted at a ratio of 5:1 (T cells: microspheres) for various time points and were evaluated for their molecular, physiologic and phenotypic characteristics by standard methodologies including flow cytometry, western blot, PCR and metabolic flux analysis (FIG. 1).

CD8+ T cells [2] = experiment: Lipid content / de novo lipid synthesis in antigen-stimulated CD8+ T cells; format: cell-based, mice
Description: (§2) Naïve or resting CD8+ T cells obtained from OT-1 PL Rag−/− TCR transgenic mice were stimulated in vitro with its cognate antigen in the presence of B7.1 co-stimulatory molecule, and cytokine IL-12 for 48h. The antigen constitutes sulfate latex microspheres (Life Technologies Cat. No. S37227) bearing DimerX Ig-recombinant dimeric mouse H-2Kb: Ig fusion protein (BD Biosciences, Cat. No. 550750) with recombinant mouse B7-1/CD80 Fc chimeric protein (R&D Systems, Cat. No. 740-B). Short synthetic peptide SIINFEKL (SEQ ID NO:1) at 10 nM concentration (sequence derived from a chicken ovalbumin protein), presented by H-2Kb DimerX serves as the cognate antigen for TCR of CD8+ T cells from OT-1 PL Rag−/−TCR transgenic mice. CD8+ T cells isolated from lymph nodes and/or spleen were stimulated with antigen in the following culture medium: Glutamine-free RPMI (Corning CellGro, Cat. No. 15-040-CV) supplemented with FBS 10%, HEPES 10 mM, NEAA 1 mM, sodium pyruvate 1 mM, glutamine 2 mM, 2-mercaptoethanol 50 μM, and Pen/Strep. T cells were cultured in flat-bottom 96-well plates at 2×105/0.2 ml/well with microspheres at the ratio of 5:1. Genipin was added at 50 μM concentration (based on dose titration that produces minimal cell death) and preincubated with cells for 45 mins before subjecting the CD8+ T cells to antigen stimulation. […]

CD8+ T cells [3] = experiment: Metabolic flux analysis (ECAR/OCR, spare respiratory capacity) of antigen-stimulated CD8+ T cells; format: cell-based, mice; conditions: antigen stimulation in the presence of Genipin, FIG. 4A
Description: Naïve or resting CD8+ T cells obtained from OT-1 PL Rag−/− TCR transgenic mice were stimulated in vitro with its cognate antigen in the presence of B7.1 co-stimulatory molecule, and cytokine IL-12 for 48h. The antigen constitutes sulfate latex microspheres (Life Technologies Cat. No. S37227) bearing DimerX Ig-recombinant dimeric mouse H-2Kb: Ig fusion protein (BD Biosciences, Cat. No. 550750) with recombinant mouse B7-1/CD80 Fc chimeric protein (R&D Systems, Cat. No. 740-B). Short synthetic peptide SIINFEKL (SEQ ID NO:1) at 10 nM concentration (sequence derived from a chicken ovalbumin protein), presented by H-2Kb DimerX serves as the cognate antigen for TCR of CD8+ T cells from OT-1 PL Rag−/−TCR transgenic mice. CD8+ T cells isolated from lymph nodes and/or spleen were stimulated with antigen in the following culture medium: Glutamine-free RPMI (Corning CellGro, Cat. No. 15-040-CV) supplemented with FBS 10%, HEPES 10 mM, NEAA 1 mM, sodium pyruvate 1 mM, glutamine 2 mM, 2-mercaptoethanol 50 μM, and Pen/Strep. […] For antigen stimulation, the naïve T cells and latex microspheres were reacted at a ratio of 5:1 (T cells: microspheres) for various time points and were evaluated for their molecular, physiologic and phenotypic characteristics by standard methodologies including flow cytometry, western blot, PCR and metabolic flux analysis (FIG. 1).

[4] = system: antigen stimulated OT-1 cells; experiment: Antigen-induced cytoplasmic and mitochondrial ROS by CM-H2DCFDA and MitoSox staining and flow cytometry; format: cell-based, mice
Description: as §2, with “[…] To determine whether UCP2 plays a role” for “T cells were cultured”, “antigen induced ROS generation and determine its impact” for “flat-bottom 96-well plates at 2×105/0.2 ml/well with microspheres at the ratio of 5:1. Genipin was added at 50 μM concentration (based”, “on” for “on dose titration that produces minimal cell death) and preincubated with cells for 45 mins before subjecting the”, “cell clonal expansion,” for “cells to”, “induced cytoplasmic (CROS) and/or mitochondrial ROS (mROS) production was evaluated by CM-H2DCFDA and MitoSox staining and flow cytometry analysis, respectively.” for “stimulation.”

[5] = system: CD8+ T cells obtained from OT-1 PL Rag−/− TCR transgenic mice; experiment: Proliferation, clonal expansion and apoptosis of antigen-stimulated CD8+ T cells; format: cell-based
Description: as §1, with “1). To determine whether UCP2 plays a role in antigen induced ROS generation and determine its impact on CD8+ T cell clonal expansion, antigen induced cytoplasmic (CROS) and/or mitochondrial ROS (mROS) production was evaluated by CM-H2DCFDA and MitoSox staining and flow cytometry analysis, respectively. Genetic (si-UCP2) or pharmacological (Genipin) means were used to block UCP2 function.” for “1).”

[6] = UCP2 inhibited OT-1 cells, FIG. 3C

Compound: COC(=O)C1=CO[C@@H](O)[C@@H]2C(CO)=CC[C@H]12 [Genipin]
- PD-1 and Lag3 expression (CD8+ T cells [1]): increases
- Blimp1/BC16 ratio (CD8+ T cells [1]; FIG. 5): increasing
- Tbet/Eomes ratio (CD8+ T cells [1]; FIG. 5): increasing
- expression of IFNγ, Gzmb, and effector cell markers KLRG1 and CXCR3 (CD8+ T cells [1]; FIG. 5): increased expression
- lipid content (de novo lipid synthesis) (CD8+ T cells [2]; antigen stimulation in the presence of Genipin, FIG. 4B): increased lipid content
- ECAR/OCR ratio (glycolysis over mitochondrial respiration) (CD8+ T cells [3]): higher
- spare respiratory capacity (SRC) (CD8+ T cells [3]): very low
- mitochondrial reactive oxygen species (ROS) ([4]; Genipin treated): increase
- proliferation of activated CD8+ T cells ([5]; Genipin treated, 50 μM, FIG. 3A): limited proliferation
- apoptosis (contraction in clonal expansion) ([5]; Genipin treated, FIG. 3B): increased apoptosis

Compound: CC1(C)CC(NC(=O)C[P+](c2ccccc2)(c2ccccc2)c2ccccc2)CC(C)(C)N1[O] [MitoTempo]
- mitochondrial ROS after quenching with mitochondrially targeted antioxidant [4, 6]: reverses ROS
- cell proliferation and cell contraction after quenching of mitochondrial ROS [5, 6]: restored

Compound: CC(NC(=O)C(NC(=O)OCc1ccccc1)C(C)C)C(=O)NC(CC(=O)O)C(=O)CF (stereo not drawn) [ZVAD] (Cbz-Val-Ala-Asp-CH2F; configuration not given here)
- Genipin-induced contraction in clonal expansion on addition of pan caspase inhibitor ([5]; added to Genipin treated cells, FIG. 3B): can be reversed

Compound: SML0068
- lipid synthesis on blocking cytoplasmic export of citrate from the mitochondria (CD8+ T cells [2]; UCP2 inhibited cells, FIG. 4D): reduced lipid synthesis
